# Data taken from PubChem BioAssay AID1918956 (Molecular Pharmacology Branch, DTP, NCI, 2023).
# Tested on: OVCAR-5 complex spheroids, viability
# Experiment: Anticancer human tumor OVCAR-5 cell line growth inhibition;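 also: spheroids exposed to agents for seven days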;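 as to viability, T/C: 100% = DMSO vehicle control wells viability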
# Settings: for IC50: curve of first compound; for viability, T/C: stronger effect = lower value
# Summary of the method: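 Multicellular complex spheroids of tumor cells with human endothelial cells (HUVEC) and mesenchymal stem cells; the LSD1 inhibitor iadademstat was combined with standard-of-care or investigational agents. Top concentration at or near clinical Cmax, half-log dilutions; final DMSO ≤0.25%.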
# [1] = second compound 0.1 µM, first compound 0.000316 µM
# [2] = second compound 0.1 µM, first compound 0.001 µM
# [3] = second compound 0.1 µM, first compound 0.00316 µM
# [4] = second compound 0.1 µM, first compound 0.01 µM
# [5] = second compound 0.1 µM, first compound 0.0316 µM
# [6] = second compound 0.1 µM, first compound 0.1 µM
# [7] = second compound 0.316 µM, first compound 0.000316 µM
# [8] = second compound 0.316 µM, first compound 0.001 µM
# [9] = second compound 0.316 µM, first compound 0.00316 µM
# [10] = second compound 0.316 µM, first compound 0.01 µM
# [11] = second compound 0.316 µM, first compound 0.0316 µM
# [12] = second compound 0.316 µM, first compound 0.1 µM
# [13] = second compound 1 µM, first compound 0.000316 µM
# [14] = second compound 1 µM, first compound 0.001 µM
# [15] = second compound 1 µM, first compound 0.00316 µM
# [16] = second compound 1 µM, first compound 0.01 µM
# [17] = second compound 1 µM, first compound 0.0316 µM
# [18] = second compound 1 µM, first compound 0.1 µM
# [19] = second compound 3.16 µM, first compound 0.000316 µM
# [20] = second compound 3.16 µM, first compound 0.001 µM
# [21] = second compound 3.16 µM, first compound 0.00316 µM
# [22] = second compound 3.16 µM, first compound 0.01 µM
# [23] = second compound 3.16 µM, first compound 0.0316 µM
# [24] = second compound 3.16 µM, first compound 0.1 µM
# [25] = second compound 10 µM, first compound 0.000316 µM
# [26] = second compound 10 µM, first compound 0.001 µM
# [27] = second compound 10 µM, first compound 0.00316 µM
# [28] = second compound 10 µM, first compound 0.01 µM
# [29] = second compound 10 µM, first compound 0.0316 µM
# [30] = second compound 10 µM, first compound 0.1 µM
Compound,IC50 (second compound 0.1 µM) [nM],IC50 (second compound 0.316 µM) [nM],IC50 (second compound 1 µM) [nM],IC50 (second compound 3.16 µM) [nM],IC50 (second compound 10 µM) [nM],"viability, T/C [3] [%]","viability, T/C [4] [%]","viability, T/C [5] [%]","viability, T/C [6] [%]","viability, T/C [9] [%]","viability, T/C [10] [%]","viability, T/C [11] [%]","viability, T/C [12] [%]","viability, T/C [15] [%]","viability, T/C [16] [%]","viability, T/C [17] [%]","viability, T/C [18] [%]","viability, T/C [21] [%]","viability, T/C [22] [%]","viability, T/C [23] [%]",other results
CC(C)CC(NC(=O)C(Cc1ccccc1)NC(=O)c1cnccn1)B(O)O (stereo not given) + NC1CCC(NC2CC2c2ccccc2)CC1,7.78,8.49,7.89,7.42,6.4,84.3,39.5,16.2,6.2,87.4,42.6,16.1,5.03,85.2,39.9,15.4,5.03,78.6,39,13.6,"viability, T/C [1]: 92%; viability, T/C [2]: 100%; viability, T/C [7]: 97.3%; viability, T/C [8]: 97.9%; viability, T/C [13]: 88.6%; viability, T/C [14]: 98.8%; viability, T/C [19]: 79.8%; viability, T/C [20]: 104%; viability, T/C [24]: 4.87%; viability, T/C [25]: 84.4%; viability, T/C [26]: 82.3%; viability, T/C [27]: 73.4%; viability, T/C [28]: 35.1%; viability, T/C [29]: 10.2%; viability, T/C [30]: 3.83%"
CC(C)CC(NC(=O)CNC(=O)c1cc(Cl)ccc1Cl)B1OC(=O)CC(CC(=O)O)(C(=O)O)O1 (stereo not given) + NC1CCC(NC2CC2c2ccccc2)CC1,> 100,> 100,> 100,> 100,> 100,108,91.5,89.7,71.8,113,83.6,85.2,70.8,110,95.1,80.7,71.4,95.6,76.5,77.7,"viability, T/C [1]: 96.8%; viability, T/C [2]: 95%; viability, T/C [7]: 97.5%; viability, T/C [8]: 112%; viability, T/C [13]: 103%; viability, T/C [14]: 93.7%; viability, T/C [19]: 101%; viability, T/C [20]: 103%; viability, T/C [24]: 64.6%; viability, T/C [25]: 98.1%; viability, T/C [26]: 79.8%; viability, T/C [27]: 89.1%; viability, T/C [28]: 86.7%; viability, T/C [29]: 76.5%; viability, T/C [30]: 56.6%"
COc1cc(Nc2ncc3c(n2)-c2ccc(Cl)cc2C(c2c(F)cccc2OC)=NC3)ccc1C(=O)O + NC1CCC(NC2CC2c2ccccc2)CC1,> 1000,> 1000,999,> 1000,> 1000,103,99.1,83.5,61,94.5,93.2,78.4,64,87.3,90.3,80.2,62.7,83.6,83.7,75.2,"viability, T/C (second compound 0.1 µM, first compound 0.316 µM): 64.1%; viability, T/C (second compound 0.1 µM, first compound 1 µM): 54.6%; viability, T/C (second compound 0.316 µM, first compound 0.316 µM): 57.3%; viability, T/C (second compound 0.316 µM, first compound 1 µM): 56.6%; viability, T/C (second compound 1 µM, first compound 0.316 µM): 59.8%; viability, T/C (second compound 1 µM, first compound 1 µM): 47.4%; viability, T/C [24]: 59.3%; viability, T/C (second compound 3.16 µM, first compound 0.316 µM): 60.7%; viability, T/C (second compound 3.16 µM, first compound 1 µM): 52.5%; viability, T/C [27]: 83.5%; viability, T/C [28]: 78.7%; viability, T/C [29]: 79.7%; viability, T/C [30]: 57.6%; viability, T/C (second compound 10 µM, first compound 0.316 µM): 55.8%; viability, T/C (second compound 10 µM, first compound 1 µM): 45.5%"
